One data set concerns the target T1, monkey chymase (Macaca fascicularis, UniProt P56435).
T1 construct: chymase was extracted from homogenized monkey cheek pouch and stomach; from tissue; host or cells: monkey cheek pouch and stomach
T1 sequence (P56435 22-247): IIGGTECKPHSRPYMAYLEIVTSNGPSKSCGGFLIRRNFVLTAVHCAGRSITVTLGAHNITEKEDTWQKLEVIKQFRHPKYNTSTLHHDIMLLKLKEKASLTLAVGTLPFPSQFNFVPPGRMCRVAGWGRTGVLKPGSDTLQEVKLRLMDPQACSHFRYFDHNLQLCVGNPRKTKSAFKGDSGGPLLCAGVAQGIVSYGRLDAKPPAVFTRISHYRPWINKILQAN
The experiment in a line: Monkey chymase inhibitory activity (in vitro, angiotensin I substrate). It is filed as biochemical. Particulars: for IC50: chymase purified from monkey cheek pouch and stomach, substrate angiotensin I, 37° C., read-out: Monkey Chymase Inhibition (IC50:nM). How it is done: (§1) The inhibitory activities of the compounds on monkey chymase and human chymase were tested in vitro. The test compounds are as shown by Compound Nos. in Tables 13 and 14.
Preparation of Monkey Chymase
Chymase was purified from monkey cheek pouch and stomach in the following manner.
Briefly, chymase was extracted from homogenized monkey cheek pouch and stomach with 0.01 mol/1000 ml sodium phosphate buffer, pH 7.4, containing 2 mol/1000 ml KCl and 0.1% Nonidet P-40 (Amresco Inc.). The solution containing chymase was applied to a heparin actigel column, and the chymase-rich fractions were collected.
(§2) Measurement of Chymase Inhibitory Activity (In Vitro Assay)
(§3) Briefly, the purified monkey or human chymase was diluted to an appropriate concentration with 0.01 mol/1000 ml sodium phosphate buffer, pH 7.4, containing 2 mol/1000 ml KCl and 0.1% Nonidet P-40 and used as enzyme solution. Angiotensin I (Peptide Institute Inc.) was diluted with water to 5 mg/ml and used as substrate solution. Test compounds were serially diluted with 10% DMSO. […] After pre-incubation of the mixture at 37° C., 20 μl of the substrate solution was added to the enzyme-test compound mixture and the new mixture was incubated at 37° C. Fifty μl of 30% trichloroacetic acid solution was finally added to stop the enzymatic reaction.
(§4) The amount of L-His-L-Leu was measured as angiotensin II produced by the enzymatic reaction. Briefly, 10 μl of the reaction mixture and 10 μl of 1% orthophthalaldehyde solution dissolved in methanol were mixed with 100 μl of 2 mol/1000 ml NaOH and kept at room temperature. The reaction was then stopped by adding 10 μl of 6 mol/1000 ml HCl.

The nature of the next data set: in vivo. As to conditions: male, ddy, mouse, po.
For another data set, the target named is T2, human chymase (Homo sapiens, UniProt P23946).
T2 construct: made in house; host or cells: COS7 cells (transient transfection)
T2 sequence (P23946 22-247): T1 sequence (P56435 22-247) with S29F, V44A, K63E, Y159D, L201S, K221Q
The experiment in a line: Human chymase inhibitory activity (in vitro, angiotensin I substrate). It is filed as biochemical. As to conditions: for IC50: recombinant human chymase (COS7 cells), substrate angiotensin I, 37° C., read-out: Human Chymase Inhibition (IC50:nM). The protocol:
as §1
Preparation of Human Chymase
Human chymase was produced in mammalian cells using a recombinant DNA technique.
Construction of a human prochymase expression plasmid was performed in the following manner. Briefly, single stranded cDNA was synthesized from human heart mRNA (Clontech Laboratories, Inc.). Polymerase chain reaction amplification was carried out using the cDNA as a template and appropriate pairs of primers. The primer sequences were determined based on the human preprochymase. The amplified product was cloned into the plasmid pUC18, and then recloned into the plasmid pBluescript II KS(+) (Stratagene). Finally, the DNA fragment carrying the entire protein-coding sequences of the human preprochymase was inserted to a transient expression vector by the usual method to yield the human prochymase expression plasmid.
Transfection of COS7 cells with the human prochymase expression plasmid was carried out using the FuGene™ 6 transfection reagent (Boehringer Mannheim). About 7 hours after exposure to DNA, the culture medium was changed to a serum-free one. The culture supernatant was collected after 2 days culture.
Human prochymase was purified from the culture supernatant using a heparin actigel column as described above in the preparation of monkey chymase.
In order to produce active chymase, the human prochymase was incubated with dipeptidylpeptidase I (Sigma). The resultant active human chymase was purified using a heparin actigel column as described above. The active human chymase was eluted with 0.01 mol/1000 ml sodium phosphate buffer pH 7.4 containing 2 mol/1000 ml NaCl.
as §2
as §3, with “The chymase inhibitory activities of compounds I-A of this invention were measured according to the following method. Briefly,” for “Briefly,”
as §4, with “HCl. Finally, the fluorescence induced by the reaction was measured using in a photometer with an excitation wavelength of 355 nm and an emission wavelength of 460 nm. Chymase inhibitory activities of test compounds were expressed as 50% inhibitory concentration (IC50).” for “HCl.”

Each structure is given as a SMILES string. Where a chain is given by its changes, count along the chain named. Counter-ions that a name gives are not always drawn.

Procedure for in vivo: Plasma levels of test compounds were measured in the following manner.
Briefly, test compounds were dissolved in DMSO to 100 mg/ml, and suspended with 0.5% tragacanth solution 1 mg/ml. Male ddy mice, weighing about 30 g, were orally administered the test compound solution. After one hour, blood was collected from the heart under anesthesia with Nembutal (Dainippon Pharmaceutical Co., Ltd.) and centrifuged to obtain plasma. The collected plasma (125 μl) was mixed with 10% DMSO (120 μl) and ethyl acetate (720 μl). After centrifugation, the ethyl acetate layer was collected and evaporated. The residue was dissolved and diluted serially as test samples with 10% DMSO. Chymase inhibitory activities of test samples were measured in the same manner as described in Experiment 1. In this chymase inhibitory assay of test samples, 0.1 mol/1000 ml sodium phosphate buffer, pH 7.4 contained 5 mmol/1000 ml ethylenediaminetetraacetic acid (EDTA) disodium salt, 0.77 mmol/1000 ml diisopropyl fluorophosphate (DFP) and 8 mmol/1000 ml dipyridyl. Plasma concentrations of test compounds were calculated from calibration curves.
The calibration curve was obtained in the following manner. Test compounds (0.06-60 ng) were added into the control plasma. The control plasma was treated in the same manner as for test samples. Finally, chymase inhibitory activities of the 10% DMSO-dissolved residues were measured and plotted against the amount of test compounds.

As usually defined, the IC50 is the concentration that gives 50% inhibition. Take `Cc1noc(C)c1C(=O)N[C@H](C(=O)N1CCC[C@H]1C(=O)N[C@@H](Cc1ccc2ccccc2c1)C(=O)C(F)(F)F)C(C)C` [I-A-2, N-[(1S)-2-((2S)-2-{N-[(1S)-3,3,3-trifluoro-1-(2-naphthylmethyl)-2-oxopropyl]carbamoyl}pyrrolidinyl)-1-(methylethyl)-2-oxoethyl]-(3,5-dimethylisoxazol-4-yl)carboxamide]: the IC50 amounted to 54 nM on monkey chymase and 83 nM at human chymase. Besides, the concentration at 1 h in the data set “in vivo” was 2700 ng/mL.

`CC[C@H](NC(=O)c1c(C)noc1C)C(=O)N1CCC[C@H]1C(=O)N[C@@H](Cc1csc2ccccc12)C(=O)C(F)(F)F` [I-A-3, N-[(1S)-2-((2S)-2-{N-[(1S)-1-(benzo[b]thiophen-3-ylmethyl)-3,3,3-trifluoro-2-oxopropyl]carbamoyl}pyrrolidinyl)-1-ethyl-2-oxoethyl](3,5-dimethylisoxazol-4-yl)carboxamide]: the IC50 was 9.3 nM at monkey chymase and 50 nM at human chymase. This compound had a concentration at 1 h in the data set “in vivo” of 320 ng/mL.

Take `CC(C)[C@H](NC(=O)c1ccc2c(c1)no[n+]2[O-])C(=O)N1CCC[C@H]1C(=O)NC(Cc1csc2ccccc12)C(=O)C(F)(F)F` (some centres unmarked) [I-A-52]: the IC50 on monkey chymase worked out at 31 nM; at human chymase, 57 nM.

For the compound `CC(C)[C@H](NC(=O)c1ccc2c(c1)no[n+]2[O-])C(=O)N1CCC[C@H]1C(=O)NC(Cc1ccc2ccccc2c1)C(=O)C(F)(F)F` (some centres unmarked) [I-A-53], the IC50 on monkey chymase was 31 nM; on human chymase, 69 nM.

With `CC(C)[C@H](NC(=O)c1ccoc1)C(=O)N1CCC[C@H]1C(=O)NC(Cc1csc2ccccc12)C(=O)C(F)(F)F` (some centres unmarked) [I-A-64], the IC50 at monkey chymase came out at 73 nM; at human chymase it was 96 nM.

As to `CC(C)[C@H](NC(=O)c1ccc2c(c1)no[n+]2[O-])C(=O)N1CCC[C@H]1C(=O)NC(Cc1ccccc1)C(=O)C(F)(F)F` (some centres unmarked) [I-A-54], the IC50 on monkey chymase came out at 42 nM; on human chymase it was 90 nM.

As to `Cc1nnsc1C(=O)N[C@H](C(=O)N1CCC[C@H]1C(=O)NC(Cc1ccccc1)C(=O)C(F)(F)F)C(C)C` (some centres unmarked) [I-A-96], the IC50 at monkey chymase is 50 nM; at human chymase, 77 nM.

For the compound `CC(C)[C@H](NC(=O)c1ccc2nonc2c1)C(=O)N1CCC[C@H]1C(=O)NC(Cc1cc2ccccc2s1)C(=O)C(F)(F)F` (some centres unmarked) [I-A-95], the IC50 on monkey chymase amounted to 47 nM; at human chymase it was 95 nM.

As to `CC(C)[C@H](NC(=O)c1ccoc1)C(=O)N1CCC[C@H]1C(=O)NC(Cc1ccc2ccccc2c1)C(=O)C(F)(F)F` (some centres unmarked) [I-A-63], the IC50 on monkey chymase came out at 150 nM; at human chymase, 92 nM.

As to `Cc1noc(C)c1C(=O)N[C@@H](Cc1ccccc1)C(=O)N1CCC[C@H]1C(=O)NC(Cc1csc2ccccc12)C(=O)C(F)(F)F` (some centres unmarked) [I-A-8], the IC50 on monkey chymase worked out at 48 nM.

On to `CC[C@H](NC(=O)c1c(C)noc1C)C(=O)N1CCC[C@H]1C(=O)NC(Cc1ccc2ccccc2c1)C(=O)C(F)(F)F` (some centres unmarked) [I-A-13], for which the IC50 on monkey chymase was 50 nM.

For the compound `Cc1nnsc1C(=O)N[C@H](C(=O)N1CCC[C@H]1C(=O)NC(Cc1cc2ccccc2s1)C(=O)C(F)(F)F)C(C)C` (some centres unmarked) [I-A-97], the IC50 at monkey chymase worked out at 59 nM; at human chymase, 75 nM.

Consider `CC(C)[C@H](NC(=O)c1ccc2snnc2c1)C(=O)N1CCC[C@H]1C(=O)NC(Cc1csc2ccccc12)C(=O)C(F)(F)F` (some centres unmarked) [I-A-55], for which the IC50 on monkey chymase is 63 nM.

With `CC(C)[C@H](NC(=O)c1cccnc1Oc1ccccc1)C(=O)N1CCC[C@H]1C(=O)NC(Cc1csc2ccccc12)C(=O)C(F)(F)F` (some centres unmarked) [I-A-73], the IC50 on monkey chymase is 300 nM.

As for `Cc1onc(-c2ccccc2)c1C(=O)N[C@H](C(=O)N1CCC[C@H]1C(=O)NC(Cc1csc2ccccc12)C(=O)C(F)(F)F)C(C)C` (some centres unmarked) [I-A-7], at monkey chymase, the IC50 is 34 nM.

As for `CC[C@H](NC(=O)c1snnc1C)C(=O)N1CCC[C@H]1C(=O)NC(Cc1ccc2ccccc2c1)C(=O)C(F)(F)F` (some centres unmarked) [I-A-23], the IC50 on monkey chymase came to 50 nM.

With `CC[C@@H](C)[C@H](NC(=O)c1c(C)noc1C)C(=O)N1CCC[C@H]1C(=O)N[C@@H](Cc1csc2ccccc12)C(=O)C(F)(F)F` [I-A-4, N-[1-((1R)-1-methylpropyl)(1S)-2-((2S)-2-{N-[(1S)-1-(benzo[b]thiophen-3-ylmethyl)-3,3,3-trifluoro-2-oxopropyl]carbamoyl}pyrrolidinyl)-2-oxoethyl](3,5-dimethylisoxazol-4-yl)carboxamide], the IC50 came out at 12 nM at monkey chymase and 57 nM at human chymase. Besides, in “in vivo”, the concentration at 1 h turned out to be 940 ng/mL.

On to `CC(C)[C@H](NC(=O)CN1CCN(CC(=O)OC(C)(C)C)C1=O)C(=O)N1CCC[C@H]1C(=O)NC(Cc1cc2ccccc2s1)C(=O)C(F)(F)F` (some centres unmarked) [I-A-86], for which the IC50 on monkey chymase was determined as 210 nM.

With `CNC1CCN(C(=O)N[C@H](C(=O)N2CCC[C@H]2C(=O)N[C@@H](Cc2ccccc2)C(=O)C(F)(F)F)C(C)C)CC1` [Reference compound (A), [(2S)-1-((2S)-3-methyl-2-{[4-(methylamino)piperidyl]carbonylamino}butanoyl)pyrrolidin-2-yl]-N-[(1S)-3,3,3-trifluoro-2-oxo-1-benzylpropyl]carboxamide hydrochloride, reference compound], the IC50 is 1600 nM at monkey chymase and 1200 nM at human chymase. For the same compound, the “inhibitory activity on monkey chymase (in words)” value on monkey chymase (summary of Table 13) was “very low chymase inhibitory activity”. The “inhibitory activity on human chymase (in words)” value against human chymase (summary of Table 14) is reported as “very low chymase inhibitory activity”.

Turning to `Cc1nnsc1C(=O)N[C@H](C(=O)N1CCC[C@H]1C(=O)NC(Cc1ccc2c(c1)CCC2)C(=O)C(F)(F)F)C(C)C` (some centres unmarked) [I-A-24], the IC50 at monkey chymase turned out to be 150 nM.

Regarding `CC(C)[C@H](NC(=O)c1snnc1-c1ccccc1)C(=O)N1CCC[C@H]1C(=O)NC(Cc1csc2ccccc12)C(=O)C(F)(F)F` (some centres unmarked) [I-A-68], at monkey chymase, the IC50 came out at 27 nM.

Take `CC(C)[C@H](NC(=O)CN1CCN(Cc2ccccc2)C1=O)C(=O)N1CCC[C@H]1C(=O)NC(Cc1cc2ccccc2s1)C(=O)C(F)(F)F` (some centres unmarked) [I-A-87]: the IC50 at monkey chymase was found to be 250 nM.

With `CC(C)[C@H](NC(=O)Cn1ccc(=O)n(CC(=O)O)c1=O)C(=O)N1CCC[C@H]1C(=O)NC(Cc1ccccc1)C(=O)C(F)(F)F` (some centres unmarked) [I-A-88], the IC50 on monkey chymase turned out to be 68 nM.

Regarding `Cc1ccccc1CC(NC(=O)[C@@H]1CCCN1C(=O)[C@@H](NC(=O)c1c(C)noc1C)C(C)C)C(=O)C(F)(F)F` (some centres unmarked) [I-A-33], the IC50 on monkey chymase was 73 nM.

Source of the values: US6852744B2, “Pyrrolidine derivatives and their use as chymase inhibitor” (Dainippon Pharmaceutical Co., Ltd., priority 2000, dated 2005).
